In patent US9108983B2, “Pyrrole compounds, a process for their preparation and pharmaceutical compositions containing them” (LES LABORATOIRES SERVIER, priority 2013, dated 2015):
Counter-ions that a name gives are not always drawn. Like-named read-outs stand apart in the source and are kept apart here.

What was measured:
[1] = target: Bcl-2 protein (histag-Bcl-2, UniProtKB P10415) (Homo sapiens (Human), UniProt P10415); experiment: Inhibition of Bcl-2 by the fluorescence polarisation technique; format: binding; details: incubation for 2 hours, read-out: IC50 (nM) Bcl-2 FP
Bcl-2 protein, sequence (P10415 whole entry): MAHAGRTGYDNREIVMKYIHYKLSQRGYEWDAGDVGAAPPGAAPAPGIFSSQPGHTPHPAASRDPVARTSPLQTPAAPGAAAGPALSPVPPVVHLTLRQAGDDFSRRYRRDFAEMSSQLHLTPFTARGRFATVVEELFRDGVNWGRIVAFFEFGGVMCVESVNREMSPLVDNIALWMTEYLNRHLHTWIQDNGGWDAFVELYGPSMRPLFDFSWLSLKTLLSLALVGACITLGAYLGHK
How it was run: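 Fluorescence polarisation competition: His-tagged Bcl-2 (2.50×10^−8 M final) with fluorescein-labelled peptide (1.00×10^−8 M final) in 10 mM Hepes, 150 mM NaCl, 0.05% Tween20, pH 7.4. Increasing compound concentrations were added. Polarisation was read after 2 h incubation.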

[2] = tested on: RS4;11 leukaemia tumour line; experiment: In vitro cytotoxicity (Microculture Tetrazolium Assay); format: cell-based; details: RS4;11 cells, exposed for 48 hours, cell viability, read-out: IC50 (nM) MTT RS4;11
Protocol: The cytotoxicity studies were carried out on the RS4;11 leukaemia tumour line.
The cells are distributed onto microplates and exposed to the test compounds for 48 hours.
The cell viability is then quantified by a colorimetric assay, the Microculture Tetrazolium Assay (Cancer Res., 1987, 47, 939-942).

`Cc1c(C(=O)N(c2ccc(O)cc2)c2cnn(C)c2)cc(-c2cc(Cl)ccc2C(=O)N2Cc3ccccc3C[C@H]2C)n1CCN1CCOCC1` [Example 411, 5-(5-Chloro-2-{[(3R)-3-methyl-3,4-dihydroisoquinolin-2(1H)-yl]carbonyl}phenyl)-N-(4-hydroxyphenyl)-2-methyl-N-(1-methyl-1H-pyrazol-4-yl)-1-[2-(morpholin-4-yl)ethyl]-1H-pyrrole-3-carboxamide hydrochloride] was tested, and the IC50 [1] was 5.5 nM and the IC50 ([2]; Homo sapiens, RS4-11, 48 h) was 32.8 nM.

With `COc1ncc(N(C(=O)c2cc(-c3cc4c(cc3C(=O)N3Cc5ccccc5C[C@H]3CN3CCOCC3)OCO4)n(C)c2C)c2ccc(O)cc2)cn1` [Example 50, N-(4-Hydroxyphenyl)-N-(2-methoxypyrimidin-5-yl)-1,2-dimethyl-5-(6-{[(3S)-3-(morpholin-4-ylmethyl)-3,4-dihydroisoquinolin-2(1H)-yl]carbonyl}-1,3-benzodioxol-5-yl)-1H-pyrrole-3-carboxamide hydrochloride] the IC50 [1] was 5.9 nM and the IC50 ([2]; Homo sapiens, RS4-11, 48 h) was 33.1 nM.

`COc1cnc(N(C(=O)c2cc(-c3cc(Cl)ccc3C(=O)N3Cc4ccccc4C[C@H]3CN3CCOCC3)n(C)c2C)c2ccc(O)cc2)cn1` [Example 444, 5-(5-Chloro-2-{[(3S)-3-(morpholin-4-ylmethyl)-3,4-dihydroisoquinolin-2(1H)-yl]carbonyl}phenyl)-N-(4-hydroxyphenyl)-N-(5-methoxypyrazin-2-yl)-1,2-dimethyl-1H-pyrrole-3-carboxamide hydrochloride] was tested, and the IC50 [1] was 5.5 nM and the IC50 ([2]; Homo sapiens, RS4-11, 48 h) was 181 nM.

Work on `COc1ncc(N(C(=O)c2cc(-c3ccccc3C(=O)N3Cc4ccccc4C[C@H]3CN3CCOCC3)n(C)c2C)c2ccc(O)cc2)cn1` [Example 424, N-(4-Hydroxyphenyl)-N-(2-methoxypyrimidin-5-yl)-1,2-dimethyl-5-(2-{[(3S)-3-(morpholin-4-ylmethyl)-3,4-dihydroisoquinolin-2(1H)-yl]carbonyl}phenyl)-1H-pyrrole-3-carboxamide hydrochloride] yielded an IC50 [1] of 13.6 nM and an IC50 ([2]; Homo sapiens, RS4-11, 48 h) of 102 nM.

`Cc1c(C(=O)N(c2ccc(O)cc2)c2ccc(F)c(C#N)c2)cc(-c2cc(F)ccc2C(=O)N2Cc3ccccc3C[C@H]2CN2CCOCC2)n1C` [Example 437, N-(3-Cyano-4-fluorophenyl)-5-(5-fluoro-2-{[(3S)-3-(morpholin-4-ylmethyl)-3,4-dihydroisoquinolin-2(1H)-yl]carbonyl}phenyl)-N-(4-hydroxyphenyl)-1,2-dimethyl-1H-pyrrole-3-carboxamide hydrochloride] showed an IC50 [1] of 4.4 nM and an IC50 ([2]; Homo sapiens, RS4-11, 48 h) of 70.5 nM.

With `CCNC(=O)NCc1ccc(C(=O)N2Cc3ccccc3C[C@H]2C)c(-c2cc(C(=O)N(C)c3ccc(O)cc3)c(C)n2C)c1` [Example 52, 5-(5-{[(Ethylcarbamoyl)amino]methyl}-2-{[(3R)-3-methyl-3,4-dihydroisoquinolin-2(1H)-yl]carbonyl}phenyl)-N-(4-hydroxyphenyl)-N,1,2-trimethyl-1H-pyrrole-3-carboxamide] the IC50 [1] was 28.9 nM and the IC50 ([2]; Homo sapiens, RS4-11, 48 h) was 433 nM.

In the case of `Cc1c(C(=O)N(C)c2ccc(O)cc2)cc(-c2ccc(CNC(=O)Oc3ccccc3)cc2C(=O)N2Cc3ccccc3C[C@H]2C)n1C` [Example 32, Phenyl (4-{4-[(4-hydroxyphenyl)(methyl)carbamoyl]-1,5-dimethyl-1H-pyrrol-2-yl}-3-{[(3R)-3-methyl-3,4-dihydroisoquinolin-2(1H)-yl]carbonyl}benzyl)-carbamate], the IC50 [1] is reported as 13.3 nM and the IC50 ([2]; Homo sapiens) is reported as 240 nM.

For `Cc1c(C(=O)N(c2ccc(O)cc2)c2cnn(C)c2)cc(-c2cc(Cl)ccc2C(=O)N2Cc3ccccc3C[C@H]2CN2CCN3CCOC[C@@H]3C2)n1C` [Example 115, 5-(5-Chloro-2-{[(3S)-3-[(9aS)-hexahydropyrazino[2,1-c][1,4]oxazin-8(1H)-ylmethyl]-3,4-dihydroisoquinolin-2(1H)-yl]carbonyl}phenyl)-N-(4-hydroxyphenyl)-1,2-dimethyl-N-(1-methyl-1H-pyrazol-4-yl)-1H-pyrrole-3-carboxamide dihydrochloride], the IC50 [1] was 3.6 nM and the IC50 ([2]; Homo sapiens, RS4-11, 48 h) was 18.3 nM.

`Cc1c(C(=O)N(c2ccc(O)cc2)c2cnc3c(c2)CCN3C)cc(-c2cc(Cl)ccc2C(=O)N2Cc3ccccc3C[C@H]2CN2CCOCC2)n1C` [Example 445, 5-(5-Chloro-2-{[(3S)-3-(morpholin-4-ylmethyl)-3,4-dihydroisoquinolin-2(1H)-yl]carbonyl}phenyl)-N-(4-hydroxyphenyl)-1,2-dimethyl-N-[1-(trideuteriomethyl)-2,3-dihydro-H-pyrrolo[2,3-b]pyridin-5-yl]-1H-pyrrole-3-carboxamide hydrochloride] was tested, and the IC50 ([1]; hydrochloride) was 2 nM and the IC50 ([2]; hydrochloride) was 19 nM.

In the case of `Cc1c(C(=O)N(c2ccc(O)cc2)c2cnc3c(ccn3C)c2)cc(-c2cc3c(cc2C(=O)N2Cc4ccccc4C[C@H]2CN2CCOCC2)OCO3)n1C` [Example 44, N-(4-Hydroxyphenyl)-1,2-dimethyl-N-(1-methyl-1H-pyrrolo[2,3-b]-pyridin-5-yl)-5-(6-{[(3S)-3-(morpholin-4-ylmethyl)-3,4-dihydroisoquinolin-2(1H)-yl]carbonyl}-1,3-benzodioxol-5-yl)-1H-pyrrole-3-carboxamide hydrochloride], the IC50 [1] is reported as 3 nM and the IC50 ([2]; Homo sapiens, RS4-11, 48 h) is reported as 5.41 nM.

`COc1ccc(N(C(=O)c2cc(-c3cc(Cl)ccc3C(=O)N3Cc4ccccc4C[C@H]3CN3CCOCC3)n(C)c2C)c2ccc(O)cc2)cc1C#N` [Example 395, 5-(5-Chloro-2-{[(3S)-3-(morpholin-4-ylmethyl)-3,4-dihydroisoquinolin-2(1H)-yl]carbonyl}phenyl)-N-(3-cyano-4-methoxyphenyl)-N-(4-hydroxyphenyl)-1,2-dimethyl-1H-pyrrole-3-carboxamide hydrochloride] was tested, and the IC50 [1] was 3.5 nM and the IC50 ([2]; Homo sapiens, RS4-11, 48 h) was 7.57 nM.

For `COc1cc(C(=O)N2Cc3ccccc3C[C@H]2CN2CCOCC2)c(-c2cc(C(=O)N(c3ccc(O)cc3)c3cc(C#N)n(C)c3C)c(C)n2C)cc1F` [Example 440, N-(5-Cyano-1,2-dimethyl-1H-pyrrol-3-yl)-5-(5-fluoro-4-methoxy-2-{[(3S)-3-(morpholin-4-ylmethyl)-3,4-dihydroisoquinolin-2(1H)-yl]carbonyl}phenyl)-N-(4-hydroxyphenyl)-1,2-dimethyl-1H-pyrrole-3-carboxamide hydrochloride], the IC50 [1] was 2.6 nM and the IC50 ([2]; Homo sapiens, RS4-11, 48 h) was 13.6 nM.

`Cc1ccc(N(C(=O)c2cc(-c3cc4c(cc3C(=O)N3Cc5ccccc5C[C@H]3CN3CCOCC3)OCO4)n(C)c2C)c2ccc(O)cc2)cc1F` [Example 13, N-(3-Fluoro-4-methylphenyl)-N-(4-hydroxyphenyl)-1,2-dimethyl-5-(6-{[(3S)-3-(morpholin-4-ylmethyl)-3,4-dihydroisoquinolin-2(1H)-yl]carbonyl}-1,3-benzodioxol-5-yl)-1H-pyrrole-3-carboxamide hydrochloride] was tested, and the IC50 [1] was 4.4 nM and the IC50 ([2]; Homo sapiens, RS4-11, 48 h) was 19.8 nM.

Molecule `Cc1c(C(=O)N(c2ccc(O)cc2)c2cnc3c(ccn3C)c2)cc(-c2cc(Cl)ccc2C(=O)N2Cc3ccccc3C[C@H]2CN2CCN(C)CC2)n1C` [Example 102, 5-(5-Chloro-2-{[(3S)-3-[(4-methylpiperazin-1-yl)methyl]-3,4-dihydroisoquinolin-2(1H)-yl]carbonyl}phenyl)-N-(4-hydroxyphenyl)-1,2-dimethyl-N-(1-methyl-1H-pyrrolo[2,3-b]pyridin-5-yl)-1H-pyrrole-3-carboxamide trihydrochloride] has an IC50 [1] of 2 nM and an IC50 ([2]; Homo sapiens, RS4-11, 48 h) of 6.51 nM.

`Cc1c(C(=O)N(c2ccc(O)cc2)c2cnn(C3COC3)c2)cc(-c2cc(Cl)ccc2C(=O)N2Cc3ccccc3C[C@H]2CN2CCOCC2)n1C` [Example 126, 5-(5-Chloro-2-{[(3S)-3-(morpholin-4-ylmethyl)-3,4-dihydroisoquinolin-2(1H)-yl]carbonyl}phenyl)-N-(4-hydroxyphenyl)-1,2-dimethyl-N-[1-(oxetan-3-yl) 1H-pyrazol-4-yl]-1H-pyrrole-3-carboxamide] was tested, and the IC50 [1] was 4.2 nM and the IC50 ([2]; Homo sapiens, RS4-11, 48 h) was 49.2 nM.

With `Cc1c(C(=O)N(c2ccc(O)cc2)c2cnc(F)cn2)cc(-c2cc(Cl)ccc2C(=O)N2Cc3ccccc3C[C@H]2CN2CCOCC2)n1C` [Example 446, 5-(5-Chloro-2-{[(3S)-3-(morpholin-4-ylmethyl)-3,4-dihydroisoquinolin-2(1H)-yl]carbonyl}phenyl)-N-(5-fluoropyrazin-2-yl)-N-(4-hydroxyphenyl)-1,2-dimethyl-1H-pyrrole-3-carboxamide hydrochloride] the IC50 [1] was 7.8 nM and the IC50 ([2]; Homo sapiens, RS4-11, 48 h) was 249 nM.

Work on `Cc1c(C(=O)N(c2ccc(O)cc2)c2cnc3c(ccn3C)c2)cc(-c2ccccc2C(=O)N2Cc3ccccc3C[C@H]2CN2CCOCC2)n1C` [Example 409, N-(4-Hydroxyphenyl)-1,2-dimethyl-N-(1-methyl-1H-pyrrolo[2,3-b]-pyridin-5-yl)-5-(2-{[(3S)-3-(morpholin-4-ylmethyl)-3,4-dihydroisoquinolin-2(1H)-yl]-carbonyl}phenyl)-1H-pyrrole-3-carboxamide hydrochloride] yielded an IC50 [1] of 12.2 nM and an IC50 ([2]; Homo sapiens, RS4-11, 48 h) of 41.9 nM.

Molecule `Cc1c(C(=O)N(C)c2ccc(O)cc2)cc(-c2ccc(CNC(=O)NCc3ccccc3)cc2C(=O)N2Cc3ccccc3C[C@H]2C)n1C` [Example 37, 5-(4-{[(Benzylcarbamoyl)amino]methyl}-2-{[(3R)-3-methyl-3,4-dihydroisoquinolin-2(1H)-yl]carbonyl}phenyl)-N-(4-hydroxyphenyl)-N,1,2-trimethyl-1H-pyrrole-3-carboxamide] has an IC50 [1] of 60.4 nM and an IC50 ([2]; Homo sapiens, RS4-11, 48 h) of over 600 nM.
